Earlier results as cited in patent US20110048980A1, “Fatty Acid Oxidation Inhibitors Treating Hyperglycemia and Related Disorders” (Symcopeia Company, priority 2007, published 2011).
Blank lines part the entries; values can stand above or below the compound they belong to.

Assays:
[1] = in vivo
[2] = pioglitazone added to other glucose lowering drugs, equivalent glucose-lowering

SMILES: COc1ccccc1OCC(O)CN1CCN(CC(=O)Nc2c(C)cccc2C)CC1 (stereo not shown) [Ranolazine, ranolazine]
QT interval effect [1]: causes QT interval prolongation

increase in risk of congestive heart failure (CHF) [2]: 2-3 fold
SMILES: CCc1ccc(CCOc2ccc(CC3SC(=O)NC3=O)cc2)nc1 (stereo not shown) [pioglitazone]

CHD events, relative risk (IGT patients, not statistically reduced, trend): 1.37
SMILES: CN(CCOc1ccc(CC2SC(=O)NC2=O)cc1)c1ccccn1 (stereo not shown) [rosiglitazone]
increase in incidence of CHF (pre-diabetic population): 7 fold
